Measurements taken from US9505727B2 (THE JOHNS HOPKINS UNIVERSITY, priority 2013, dated 2016).

Experiments:
α1/β2/γ2 GABAA receptor = biological target: T1, α1/β2/γ2 GABAA receptor (Homo sapiens, UniProt P14867+P18507+P47870); assay: GABAA receptor activation in oocytes held at −70 mV; assay type: cell-based
T1 construct: expressed in transfected cells; host or cells: oocytes

hNav1.1 = biological target: T2, hNav1.1 (Homo sapiens, UniProt P35498); assay: Two-electrode voltage-clamp of hNav1.1 (+β1) in Xenopus oocytes; assay type: cell-based; conditions: for Inactivation (V1/2) hNav1.1 / Activation (V1/2) hNav1.1: 100 μM drug; for Inactivation (V1/2) hNav1.1: steady-state inactivation; for Activation (V1/2) hNav1.1: ≤1% DMSO, oocytes incubated at least one hour; for Effect on hNav1.1 opening (G/Gmax), in words / Effect on hNav1.1 steady-state inactivation, in words / Effect on hNav1.1 persistent current / Depolarizing shift in hNav1.1 channel activation voltage: 100 μM; for Effect on hNav1.1 opening (G/Gmax), in words / Depolarizing shift in hNav1.1 channel activation voltage: versus DMSO; for Effect on hNav1.1 persistent current: end of 50 ms test pulse
T2 construct: host or cells: Xenopus oocytes (cRNA injection)

hNav1.2 = biological target: T3, hNav1.2 (Homo sapiens, UniProt Q99250); assay: Two-electrode voltage-clamp of hNav1.2 (+β1) in Xenopus oocytes; assay type: cell-based; conditions: for Effect on hNav1.2 opening/gating, in words: 100 μM, versus DMSO; for Inactivation (V1/2) hNav1.2 / Activation (V1/2) hNav1.2: 100 μM drug; for Inactivation (V1/2) hNav1.2: steady-state inactivation; for Activation (V1/2) hNav1.2: ≤1% DMSO
T3 construct: host or cells: Xenopus oocytes (cRNA injection)

hNav1.6 = biological target: T4, hNav1.6 (Homo sapiens, UniProt Q9UQD0); assay: Two-electrode voltage-clamp of hNav1.6 (+β1) in Xenopus oocytes; assay type: cell-based; conditions: for Inactivation (V1/2) hNav1.6 / Activation (V1/2) hNav1.6: 100 μM drug; for Inactivation (V1/2) hNav1.6: steady-state inactivation; for Activation (V1/2) hNav1.6: ≤1% DMSO
T4 construct: host or cells: Xenopus oocytes (cRNA injection)

hNav1.3 = biological target: T5, hNav1.3 (Homo sapiens, UniProt Q9NY46); assay: Two-electrode voltage-clamp of hNav1.3 (+β1) in Xenopus oocytes; assay type: cell-based; conditions: for Effect on hNav1.3 opening/gating, in words: 100 μM, versus DMSO; for Inactivation (V1/2) hNav1.3 / Activation (V1/2) hNav1.3: 100 μM drug; for Inactivation (V1/2) hNav1.3: steady-state inactivation; for Activation (V1/2) hNav1.3: ≤1% DMSO
T5 construct: host or cells: Xenopus oocytes (cRNA injection)

Nav1.7 = Nav1.7 (Homo sapiens, UniProt Q15858); conditions: reported by other researchers; cited from earlier work
[1] = test system: picrotoxin-induced seizures in male Crl:CF1 mice; assay: Picrotoxin seizure induction; assay type: in vivo, mouse; conditions: 75 mg/kg ip
Procedure: (§1) Animal husbandry and drug administration. Male Crl:CF1 mice (10-12 weeks old, Charles River) were housed under a 12 hour light-dark cycle with free access to food and water and all experiments were carried out between 10 am and 4 pm. 1-[phenyl-methyl]-1H-1,2,3-triazole-4-carboxamide-5-methyl (Compound B) (Sigma Aldrich) was suspended in a 40% solution of cyclodextrin (Sigma Aldrich) in sterile saline (0.9%) and 15 minutes prior to each seizure induction paradigm, 75 mg/kg of compound B was administered via intraperitoneal injection (ip) injection. Vehicle treated animals were similarly administrated 40% cyclodextrin and served as the controls for each experiment. The Emory University Institutional Animal Care and Use Committee approved all experimental protocols involving mice.
Seizure induction paradigms and analyses. Picrotoxin seizure induction—15 minutes prior to i.p. injection of picrotoxin (10 mg/kg, Sigma Aldrich), mice were administered vehicle or compound B (n=12 per group). Latencies to the first myoclonic jerk, forelimb clonus, and generalized tonic-clonic seizure were compared between compound B and vehicle-treated mice. The myoclonic jerk is characterized by a sudden jerk of the upper body whereas forelimb clonus involves rapid movement of the forelimbs for at least 5 s. Finally, the generalized tonic-clonic seizure involves the loss of postural control with rapid movement of the limbs for at least 5 s.
Statistical analysis. A Student's t-test was used to identify statistically significant differences in latencies between vehicle- and compound B-treated groups for each seizure phenotype following administration of flurothyl and picrotoxin. […] All data are presented as the mean±s.e.m.; p values <0.05 were considered significant.

[2] = test system: flurothyl-induced seizures in male Crl:CF1 mice; assay: Flurothyl seizure induction; assay type: in vivo, mouse; conditions: 75 mg/kg ip, p=0.6
Procedure: as §1
Flurothyl Seizure induction. Latencies to flurothyl-induced seizures were determined as previously described (Neurobiol Dis 49C, 211-220 (2012)). Briefly, flurothyl (2,2,2-trifluroethylether; Sigma Aldrich) was dispensed at a rate of 20 μl/minute into a Plexiglas chamber and latencies to three behavioral phenotypes were compared between vehicle-treated and compound B-treated (75 mg/kg) mice (n=12 per group): 1) the first myoclonic jerk, 2) a generalized tonic-clonic seizure, and 3) a generalized tonic-clonic seizure with tonic extension. […]

[3] = test system: 6 Hz psychomotor seizures in male Crl:CF1 mice; assay: 6 Hz psychomotor seizure induction; assay type: in vivo, mouse; conditions: 17 mA
Procedure: as §1
6 Hz psychomotor seizure induction. Topical anesthetic (0.5% tetracaine hydrochloride ophthalmic solution) was applied to the cornea 30 minutes before testing. Fifteen minutes prior to seizure induction, mice were administrated vehicle or compound B (n=12 per group). Each mouse was manually restrained and corneal stimulation (0.2 ms pulse, 6 Hz, 3 s) was performed at a current intensity of 17 mA (ECT Unit 57800; Ugo Basile, Comerio Italy). […]

T1 sequence (P14867 28-456): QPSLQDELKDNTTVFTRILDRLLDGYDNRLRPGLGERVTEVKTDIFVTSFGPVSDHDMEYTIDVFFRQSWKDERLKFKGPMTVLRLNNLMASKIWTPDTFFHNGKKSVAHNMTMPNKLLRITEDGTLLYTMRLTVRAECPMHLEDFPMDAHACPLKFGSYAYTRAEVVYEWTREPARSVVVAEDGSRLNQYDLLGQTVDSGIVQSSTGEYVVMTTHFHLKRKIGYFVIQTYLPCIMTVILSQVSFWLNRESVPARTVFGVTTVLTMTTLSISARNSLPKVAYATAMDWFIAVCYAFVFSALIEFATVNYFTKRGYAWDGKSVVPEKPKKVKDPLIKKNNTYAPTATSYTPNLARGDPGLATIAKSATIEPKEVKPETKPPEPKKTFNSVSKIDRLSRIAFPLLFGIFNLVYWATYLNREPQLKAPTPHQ
T1 sequence (P47870 25-512 limits assumed): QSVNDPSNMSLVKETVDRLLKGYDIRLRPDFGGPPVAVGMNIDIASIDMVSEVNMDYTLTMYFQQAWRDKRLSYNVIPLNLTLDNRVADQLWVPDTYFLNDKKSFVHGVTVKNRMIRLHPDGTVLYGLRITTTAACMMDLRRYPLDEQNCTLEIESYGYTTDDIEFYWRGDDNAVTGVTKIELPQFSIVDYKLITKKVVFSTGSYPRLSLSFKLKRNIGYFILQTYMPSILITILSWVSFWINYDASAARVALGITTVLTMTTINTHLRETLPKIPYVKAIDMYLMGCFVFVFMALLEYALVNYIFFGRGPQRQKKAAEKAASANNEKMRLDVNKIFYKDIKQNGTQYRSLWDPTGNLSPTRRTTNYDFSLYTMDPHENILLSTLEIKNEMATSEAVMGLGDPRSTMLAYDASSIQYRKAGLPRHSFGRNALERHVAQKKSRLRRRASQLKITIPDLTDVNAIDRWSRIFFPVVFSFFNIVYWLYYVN
T1 sequence (P18507 40-475): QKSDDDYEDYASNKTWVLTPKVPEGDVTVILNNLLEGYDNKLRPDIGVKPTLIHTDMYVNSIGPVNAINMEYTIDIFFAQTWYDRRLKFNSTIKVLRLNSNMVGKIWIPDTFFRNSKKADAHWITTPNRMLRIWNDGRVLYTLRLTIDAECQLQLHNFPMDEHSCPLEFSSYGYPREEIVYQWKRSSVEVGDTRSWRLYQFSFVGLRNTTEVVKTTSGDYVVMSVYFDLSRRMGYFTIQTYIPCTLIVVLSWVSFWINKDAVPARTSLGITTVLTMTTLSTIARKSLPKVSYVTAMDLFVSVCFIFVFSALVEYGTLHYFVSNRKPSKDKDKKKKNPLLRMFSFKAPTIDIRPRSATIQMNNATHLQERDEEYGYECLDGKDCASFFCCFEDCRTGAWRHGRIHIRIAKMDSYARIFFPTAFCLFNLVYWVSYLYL
Nav1.7, sequence (Q15858 whole entry): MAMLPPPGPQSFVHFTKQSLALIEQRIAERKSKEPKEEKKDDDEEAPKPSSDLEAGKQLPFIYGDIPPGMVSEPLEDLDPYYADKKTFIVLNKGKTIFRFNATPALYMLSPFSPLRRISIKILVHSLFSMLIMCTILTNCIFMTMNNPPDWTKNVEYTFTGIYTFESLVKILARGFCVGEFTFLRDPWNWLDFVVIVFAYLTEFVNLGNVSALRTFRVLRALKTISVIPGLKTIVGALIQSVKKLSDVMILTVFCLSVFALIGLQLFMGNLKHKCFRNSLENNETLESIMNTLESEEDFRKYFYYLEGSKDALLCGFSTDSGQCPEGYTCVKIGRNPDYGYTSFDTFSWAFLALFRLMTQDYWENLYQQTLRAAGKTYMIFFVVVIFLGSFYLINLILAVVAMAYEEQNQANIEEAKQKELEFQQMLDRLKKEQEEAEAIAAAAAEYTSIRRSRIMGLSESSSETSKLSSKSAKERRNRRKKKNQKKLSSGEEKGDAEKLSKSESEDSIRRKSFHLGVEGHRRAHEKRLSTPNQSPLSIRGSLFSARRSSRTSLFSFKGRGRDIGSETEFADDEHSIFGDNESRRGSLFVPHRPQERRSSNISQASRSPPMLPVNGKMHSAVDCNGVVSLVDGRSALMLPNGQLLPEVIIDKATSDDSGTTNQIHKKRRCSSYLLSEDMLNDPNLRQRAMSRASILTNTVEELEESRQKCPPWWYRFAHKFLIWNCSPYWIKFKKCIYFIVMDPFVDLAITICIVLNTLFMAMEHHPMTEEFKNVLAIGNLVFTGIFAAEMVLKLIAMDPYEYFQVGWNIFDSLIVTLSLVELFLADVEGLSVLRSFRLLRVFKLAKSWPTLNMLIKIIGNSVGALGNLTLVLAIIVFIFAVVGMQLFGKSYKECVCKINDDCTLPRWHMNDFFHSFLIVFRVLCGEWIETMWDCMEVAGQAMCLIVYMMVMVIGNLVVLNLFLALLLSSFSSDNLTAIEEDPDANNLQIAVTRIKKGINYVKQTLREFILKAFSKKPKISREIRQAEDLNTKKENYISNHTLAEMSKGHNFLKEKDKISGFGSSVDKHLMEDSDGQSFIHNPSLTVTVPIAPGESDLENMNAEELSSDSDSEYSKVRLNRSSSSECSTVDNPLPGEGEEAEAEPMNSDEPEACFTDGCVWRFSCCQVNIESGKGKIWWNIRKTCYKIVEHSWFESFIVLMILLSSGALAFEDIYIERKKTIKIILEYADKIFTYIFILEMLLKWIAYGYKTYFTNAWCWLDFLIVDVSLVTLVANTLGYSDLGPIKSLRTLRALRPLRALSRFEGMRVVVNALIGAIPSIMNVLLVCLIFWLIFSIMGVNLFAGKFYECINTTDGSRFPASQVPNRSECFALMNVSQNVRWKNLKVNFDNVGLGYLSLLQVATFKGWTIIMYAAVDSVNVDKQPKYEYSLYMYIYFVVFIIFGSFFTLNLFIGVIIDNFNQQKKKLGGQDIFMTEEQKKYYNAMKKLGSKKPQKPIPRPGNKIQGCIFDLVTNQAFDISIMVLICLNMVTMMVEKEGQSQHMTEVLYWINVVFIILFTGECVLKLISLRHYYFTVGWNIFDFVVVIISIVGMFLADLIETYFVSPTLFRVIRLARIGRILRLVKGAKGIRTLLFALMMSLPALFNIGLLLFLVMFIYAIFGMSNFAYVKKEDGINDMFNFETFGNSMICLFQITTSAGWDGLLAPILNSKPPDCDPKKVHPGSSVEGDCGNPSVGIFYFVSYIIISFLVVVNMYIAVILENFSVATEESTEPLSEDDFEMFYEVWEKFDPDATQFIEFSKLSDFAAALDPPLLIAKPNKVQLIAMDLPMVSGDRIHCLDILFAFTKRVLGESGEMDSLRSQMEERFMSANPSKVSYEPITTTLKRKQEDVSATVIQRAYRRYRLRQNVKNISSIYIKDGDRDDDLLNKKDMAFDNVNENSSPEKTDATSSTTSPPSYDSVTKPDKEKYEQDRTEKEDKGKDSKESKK

Row | Compound | Inactivation (V1/2) hNav1.1 (hNav1.1) | Activation (V1/2) hNav1.1 (hNav1.1) | Effect on hNav1.1 opening (G/Gmax), in words (hNav1.1) | Effect on hNav1.1 steady-state inactivation, in words (hNav1.1) | Effect on hNav1.1 persistent current (hNav1.1) | Effect on hNav1.2 opening/gating, in words (hNav1.2) | Effect on hNav1.6 opening/gating, in words (hNav1.6; 100 μM, versus DMSO) | Effect on hNav1.3 opening/gating, in words (hNav1.3) | other results
1 | NCc1cc(=O)[nH]o1 [muscimol] |  |  |  |  |  |  |  |  | Activation of α1/β2/γ2 GABAA receptor (α1/β2/γ2 GABAA receptor; 5 μM): activates
2 | NC(=O)c1nnn(Cc2ccc(F)cc2)c1N [Compound D, 1-[(4-fluorophenyl)methyl]-1H-1,2,3-Triazole-4-carboxamide-5-amine] | −49.8 ± 1.6 mV | −32.5 ± 2.3 mV | not significant |  |  |  |  |  | 
3 | OCc1cn(Cc2cccc(F)c2)nn1 [Compound C, 1-[(3-fluorophenyl)methyl]-1H-1,2,3-Triazole-4-hydroxymethyl] | −49.2 ± 0.6 mV | −38.4 ± 1.3 mV | no longer affects |  |  |  |  |  | 
4 | CCc1c(C(N)=O)nnn1Cc1ccccc1 [Compound F, 1-(phenylmethyl)-1H-1,2,3-triazole-4-carboxamide-5-ethyl] |  |  | inhibits hNav1.1 opening | does not influence | does not influence | not significant | not significant | not significant | Depolarizing shift in hNav1.1 channel activation voltage (hNav1.1): ~+12 mV
5 | COC(=O)c1nnn(Cc2c(F)cccc2F)c1C [Compound L, 1-[(2,6-difluorophenyl)methyl]-1H-1,2,3-triazole-carboxymethyl-5-methyl] |  |  | much smaller compared to compound B |  |  |  |  |  | Shift of hNav1.6 steady-state inactivation / channel availability midpoint (hNav1.6; 100 μM, versus DMSO): ~−20 mV
6 | 1-[(2,6-difluorophenyl)methyl]-1H-1,2,3-triazole-carboxymethyl-5-methyl [Compound L] |  |  | only slightly inhibits |  |  | not significant |  | not significant | Effect on hNav1.6 steady-state inactivation, in words (hNav1.6; 100 μM): dramatically affect
7 | NC(=O)c1nnn(Cc2cccc(F)c2)c1N [Compound A, 1-[(3-fluorophenyl)methyl]-1H-1,2,3-Triazole-4-carboxamide-5-amine] | −50.5 ± 1.2 mV^ | −30.8 ± 1.0 mV** | clearly inhibit | neither of these compounds influences | neither of these compounds influences |  |  |  | 
8 | NC(=O)c1cn(Cc2c(F)cccc2F)nn1 [Rufinamide, 1-[(2,6-difluorophenyl)methyl]-1H-1,2,3-Triazole-4-carboxamide, reference compound] | −47.8 ± 1.6 mV | −30.6 ± 0.9 mV** | dramatic depolarizing shift | not influenced | do not affect | not inhibited | not inhibited | not inhibited | Effect on Nav1.7 inactivated state (Nav1.7): stabilizes the inactivated state; Activation of α1/β2/γ2 GABAA receptor (α1/β2/γ2 GABAA receptor; 100 μM): do not activate; Inactivation (V1/2) hNav1.2 (hNav1.2): −57.7 ± 0.5 mV; Activation (V1/2) hNav1.2 (hNav1.2): −29.5 ± 1.2 mV; Inactivation (V1/2) hNav1.6 (hNav1.6): −60.0 ± 0.7 mV**; Activation (V1/2) hNav1.6 (hNav1.6): −28.1 ± 0.8 mV; Inactivation (V1/2) hNav1.3 (hNav1.3): −52.6 ± 1.6 mV; Activation (V1/2) hNav1.3 (hNav1.3): −24.5 ± 2.4 mV
9 | Cc1c(C(N)=O)nnn1Cc1ccccc1 [Compound B, 1-[phenyl-methyl]-1H-1,2,3-Triazole-4-carboxamide-5-methyl] | −49.4 ± 0.3 mV^ | −27.4 ± 1.0 mV** | clearly inhibit | neither of these compounds influences | neither of these compounds influences | unaltered | unaltered | unaltered | Frequency of behavioral seizures versus vehicle, picrotoxin [1]: no difference; Average latency to forelimb clonus (FC) versus vehicle, picrotoxin ([1]; p=0.3): no statistically significant differences; Average latency to first myoclonic jerk (MJ) versus vehicle, picrotoxin ([1]; p=0.4): no statistically significant differences; Effect on hNav1.1 persistent current (hNav1.1; listed as compound B): do not affect; Depolarizing shift in hNav1.1 channel activation voltage (hNav1.1): ~+11 mV; Activation of α1/β2/γ2 GABAA receptor (α1/β2/γ2 GABAA receptor; 100 μM): do not activate; Inactivation (V1/2) hNav1.2 (hNav1.2): −53.6 ± 1.2 mV; Activation (V1/2) hNav1.2 (hNav1.2): −23.6 ± 1.1 mV; Inactivation (V1/2) hNav1.6 (hNav1.6): −62.6 ± 0.7 mV; Activation (V1/2) hNav1.6 (hNav1.6): −23.8 ± 1.9 mV; Average latency to MJ versus vehicle, flurothyl [2]: comparable; Seizure severity (modified Racine scale) versus vehicle, 6 Hz ([3]; 75 mg/kg ip): dramatically less severe; Reduction in the number of mice exhibiting seizures, 6 Hz ([3]; versus vehicle): 63%; Inactivation (V1/2) hNav1.3 (hNav1.3): −50.0 ± 0.8 mV; Activation (V1/2) hNav1.3 (hNav1.3): −25.8 ± 1.4 mV
